Experimental data taken from the NIST ThermoML archive (doi:10.1021/je700321s).

Test: xn = mol fraction of the nth substance listed
Conditions: Liquid, Vibrating tube method

CC(C)O [propan-2-ol] + O=C=O
Conditions | mass density [kg/m3]
313.08 K, 10061 kPa, x2 = 0.7943 | 800.9
313.08 K, 10515 kPa, x2 = 0.7943 | 804
313.08 K, 11013 kPa, x2 = 0.7943 | 807.3
313.08 K, 11507 kPa, x2 = 0.7943 | 810.6
313.08 K, 11994 kPa, x2 = 0.7943 | 813.5
313.08 K, 12199 kPa, x2 = 0.7943 | 814.6
313.08 K, 12410 kPa, x2 = 0.7943 | 815.6
313.08 K, 12606 kPa, x2 = 0.7943 | 816.7
313.09 K, 2502 kPa, x2 = 0.139 | 781.7
313.09 K, 3002 kPa, x2 = 0.139 | 782.3
313.09 K, 3513 kPa, x2 = 0.139 | 782.9
313.09 K, 4008 kPa, x2 = 0.139 | 783.5
313.09 K, 4501 kPa, x2 = 0.139 | 784.1
313.09 K, 5001 kPa, x2 = 0.139 | 784.7
313.09 K, 5497 kPa, x2 = 0.139 | 785.3
313.09 K, 6023 kPa, x2 = 0.139 | 785.9
313.09 K, 6504 kPa, x2 = 0.139 | 786.5
313.09 K, 7026 kPa, x2 = 0.139 | 787.1
313.09 K, 7489 kPa, x2 = 0.139 | 787.6
313.09 K, 7960 kPa, x2 = 0.9492 | 642.1
313.09 K, 7998 kPa, x2 = 0.139 | 788.2
313.09 K, 8001 kPa, x2 = 0.9492 | 648.3
313.09 K, 8200 kPa, x2 = 0.9492 | 666.4
313.09 K, 8400 kPa, x2 = 0.9492 | 677.7
313.09 K, 8509 kPa, x2 = 0.139 | 788.8
313.09 K, 8606 kPa, x2 = 0.9492 | 688.5
313.09 K, 8803 kPa, x2 = 0.9492 | 697
313.09 K, 8995 kPa, x2 = 0.139 | 789.3
313.09 K, 9002 kPa, x2 = 0.9492 | 704
313.09 K, 9201 kPa, x2 = 0.9492 | 710.9
313.09 K, 9408 kPa, x2 = 0.9492 | 717.1
313.09 K, 9503 kPa, x2 = 0.139 | 789.8
313.09 K, 9604 kPa, x2 = 0.9492 | 722.7
313.09 K, 9800 kPa, x2 = 0.9492 | 728.1
313.09 K, 10003 kPa, x2 = 0.9492 | 733.1
313.09 K, 10201 kPa, x2 = 0.9492 | 737.5
313.09 K, 10405 kPa, x2 = 0.9492 | 741.5
313.09 K, 10605 kPa, x2 = 0.9492 | 744.7
313.09 K, 10803 kPa, x2 = 0.9492 | 747.4
313.1 K, 3601 kPa, x2 = 0.2003 | 786.8
313.1 K, 4007 kPa, x2 = 0.2003 | 787.4
313.1 K, 4523 kPa, x2 = 0.2003 | 788.1
313.1 K, 5069 kPa, x2 = 0.2003 | 788.7
313.1 K, 5497 kPa, x2 = 0.2003 | 789.3
313.1 K, 5812 kPa, x2 = 0.4248 | 801.4
313.1 K, 6012 kPa, x2 = 0.4248 | 801.7
313.1 K, 6027 kPa, x2 = 0.2003 | 790
313.1 K, 6200 kPa, x2 = 0.4248 | 802.1
313.1 K, 6395 kPa, x2 = 0.4248 | 802.6
313.1 K, 6504 kPa, x2 = 0.2003 | 790.7
313.1 K, 6602 kPa, x2 = 0.4248 | 803.1
313.1 K, 6803 kPa, x2 = 0.4248 | 803.5
313.1 K, 7010 kPa, x2 = 0.2003 | 791.3
313.1 K, 7055 kPa, x2 = 0.4248 | 804.1
313.1 K, 7208 kPa, x2 = 0.4248 | 804.3
313.1 K, 7409 kPa, x2 = 0.4248 | 804.8
313.1 K, 7494 kPa, x2 = 0.2003 | 791.9
313.1 K, 7611 kPa, x2 = 0.4248 | 805.2
313.1 K, 7802 kPa, x2 = 0.4248 | 805.7
313.1 K, 7989 kPa, x2 = 0.2003 | 792.6
313.1 K, 7998 kPa, x2 = 0.4248 | 806.1
313.1 K, 8201 kPa, x2 = 0.4248 | 806.5
313.1 K, 8557 kPa, x2 = 0.2003 | 793.2
313.1 K, 8597 kPa, x2 = 0.4248 | 807.3
313.1 K, 8797 kPa, x2 = 0.4248 | 807.6
313.1 K, 9017 kPa, x2 = 0.2003 | 793.8
313.1 K, 9024 kPa, x2 = 0.4248 | 808.1
313.1 K, 9602 kPa, x2 = 0.4248 | 809.3
313.1 K, 9636 kPa, x2 = 0.2003 | 794.6
313.1 K, 10055 kPa, x2 = 0.4248 | 810.1
313.12 K, 6801 kPa, x2 = 0.6086 | 802.8
313.12 K, 7000 kPa, x2 = 0.6086 | 803.5
313.12 K, 7203 kPa, x2 = 0.6086 | 804.4
313.12 K, 7402 kPa, x2 = 0.6086 | 805.2
313.12 K, 7602 kPa, x2 = 0.6086 | 806
313.12 K, 7804 kPa, x2 = 0.6086 | 806.8
313.12 K, 8010 kPa, x2 = 0.6086 | 807.7
313.12 K, 8124 kPa, x2 = 0.9715 | 526.2
313.12 K, 8197 kPa, x2 = 0.6086 | 808.3
313.12 K, 8400 kPa, x2 = 0.6086 | 809.1
313.12 K, 8526 kPa, x2 = 0.9715 | 627.3
313.12 K, 8602 kPa, x2 = 0.6086 | 809.8
313.12 K, 8812 kPa, x2 = 0.6086 | 810.5
313.12 K, 9000 kPa, x2 = 0.6086 | 811.3
313.12 K, 9002 kPa, x2 = 0.9715 | 662.5
313.12 K, 9213 kPa, x2 = 0.6086 | 812
313.12 K, 9392 kPa, x2 = 0.6086 | 812.6
313.12 K, 9522 kPa, x2 = 0.9715 | 689
313.12 K, 9600 kPa, x2 = 0.6086 | 813.3
313.12 K, 9802 kPa, x2 = 0.6086 | 814
313.12 K, 10001 kPa, x2 = 0.6086 | 814.6
313.12 K, 10021 kPa, x2 = 0.9715 | 708.1
313.12 K, 10520 kPa, x2 = 0.9715 | 722.7
313.12 K, 10993 kPa, x2 = 0.9715 | 734.9
313.12 K, 11514 kPa, x2 = 0.9715 | 746.8
313.12 K, 12038 kPa, x2 = 0.9715 | 757.3
313.12 K, 12512 kPa, x2 = 0.9715 | 765.8
313.12 K, 13003 kPa, x2 = 0.9715 | 773.6
313.12 K, 13500 kPa, x2 = 0.9715 | 781.1
313.12 K, 13998 kPa, x2 = 0.9715 | 788.2
313.12 K, 14495 kPa, x2 = 0.9715 | 794.8
313.12 K, 15008 kPa, x2 = 0.9715 | 801.1
323.03 K, 6842 kPa, x2 = 0.4248 | 786.9
323.03 K, 7010 kPa, x2 = 0.4248 | 787.3
323.03 K, 7302 kPa, x2 = 0.4248 | 788.1
323.03 K, 7530 kPa, x2 = 0.4248 | 788.6
323.03 K, 8004 kPa, x2 = 0.4248 | 789.7
323.03 K, 8302 kPa, x2 = 0.4248 | 790.4
323.03 K, 8401 kPa, x2 = 0.4248 | 790.6
323.03 K, 8500 kPa, x2 = 0.4248 | 790.8
323.03 K, 8603 kPa, x2 = 0.4248 | 791.2
323.03 K, 8710 kPa, x2 = 0.4248 | 791.4
323.03 K, 8821 kPa, x2 = 0.4248 | 791.7
323.03 K, 9000 kPa, x2 = 0.4248 | 792.1
323.03 K, 9209 kPa, x2 = 0.4248 | 792.5
323.03 K, 9309 kPa, x2 = 0.4248 | 792.8
323.03 K, 9401 kPa, x2 = 0.4248 | 793.1
323.03 K, 9502 kPa, x2 = 0.4248 | 793.3
323.03 K, 9601 kPa, x2 = 0.4248 | 793.4
323.03 K, 9728 kPa, x2 = 0.4248 | 793.7
323.05 K, 2995 kPa, x2 = 0.139 | 771.3
323.05 K, 3503 kPa, x2 = 0.139 | 771.9
323.05 K, 4003 kPa, x2 = 0.139 | 772.6
323.05 K, 4494 kPa, x2 = 0.139 | 773.2
323.05 K, 5074 kPa, x2 = 0.139 | 773.9
323.05 K, 5511 kPa, x2 = 0.139 | 774.5
323.05 K, 6033 kPa, x2 = 0.139 | 775.2
323.05 K, 7021 kPa, x2 = 0.139 | 776.4
323.05 K, 7506 kPa, x2 = 0.6086 | 779.7
323.05 K, 7514 kPa, x2 = 0.139 | 777.1
323.05 K, 7703 kPa, x2 = 0.6086 | 780.7
323.05 K, 7803 kPa, x2 = 0.6086 | 781.1
